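Grown in 96-well plates, cells were treated for 48 hours with each compound at five concentrations. Insufficient inhibition: endpoint recorded as highest concentration tested. The concentration for 50% growth inhibition is given as GI50.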 Calls of active or inactive are those of the source. Cut-off read from the data, not from the text of the source: active = GI50 up to about 1.1 µM and inactive = higher. Bounds are passed on as bounds.

Some test systems named below: U-251; PC-3; NCI/ADR-RES; SNB-75; UACC-62; LOX IMVI; MDA-N; UO-31; MCF7; NCI-H522; SK-MEL-28; OVCAR-8; MDA-MB-435; SNB-19; NCI-H23; SK-MEL-5; SF-268; DU-145; 786-0; KM12.
Common to all, as to assay: growth of human tumour cells (NCI), 48 h

For `C=C1CC(c2ccc(OCCCN3C(=O)c4ccccc4C3=O)c(OC)c2)OC1=O` (configuration not stated), the GI50 in the experiment on U-251 is 7.98 µM (inactive); with PC-3 it was 12.4 µM (inactive); in the experiment with NCI/ADR-RES, 17.9 µM (inactive); in the experiment on SNB-75, 0.382 µM (active); in the experiment with UACC-62 it was 2.07 µM (inactive); in the experiment with LOX IMVI, 1.74 µM (inactive). The GI50 was 3.44 µM (inactive) with MDA-N; 3.69 µM (inactive) with UO-31; 0.218 µM (active) with MCF7; 0.514 µM (active) in the experiment with NCI-H522; 2.21 µM (inactive) with SK-MEL-28; 2.93 µM (inactive) in the experiment on OVCAR-8. Besides, the GI50 in the experiment on MDA-MB-435 is 2.04 µM (inactive); with SNB-19 it was 11.9 µM (inactive); in the experiment with NCI-H23, 4.82 µM (inactive); with SK-MEL-5, 11.1 µM (inactive); with SF-268, 8.09 µM (inactive); in the experiment with DU-145, 11.9 µM (inactive). Also, the GI50 is 4.1 µM (inactive) in the experiment with 786-0 and 10.8 µM (inactive) with KM12.
Turning to `COc1cc2ncnc(Nc3cccc(Br)c3)c2cc1OC`, the GI50 in the experiment with U-251 is 7.06 µM (inactive); with PC-3 it was 3.77 µM (inactive); with NCI/ADR-RES it was 2.46 µM (inactive); in the experiment on SNB-75 it was 3.05 µM (inactive); in the experiment with UACC-62 it was 3.85 µM (inactive); in the experiment on LOX IMVI it was 3.1 µM (inactive). Moreover, the GI50 in the experiment with MDA-N is 7.26 µM (inactive); with UO-31, 1.98 µM (inactive); in the experiment on MCF7 it was 23.1 µM (inactive); in the experiment with NCI-H522 it was 0.338 µM (active); in the experiment on SK-MEL-28, 4.52 µM (inactive); in the experiment on OVCAR-8, 3.72 µM (inactive). The GI50 with MDA-MB-435 was 7.48 µM (inactive); in the experiment on SNB-19, 15.2 µM (inactive); in the experiment on NCI-H23, 12.5 µM (inactive); in the experiment on SK-MEL-5, 2.18 µM (inactive); with SF-268, 3.81 µM (inactive); in the experiment on DU-145, 0.0741 µM (active). The GI50 with 786-0 is 2.11 µM (inactive); with KM12, 2.7 µM (inactive).
Turning to `O=c1onc2n1-c1cc(Cl)ccc1C(=S)N1CSCC21` (configuration not stated), the GI50 is > 100 µM (inactive) in the experiment on U-251; > 100 µM (inactive) with PC-3; > 100 µM (inactive) in the experiment on NCI/ADR-RES; 31.3 µM (inactive) in the experiment on SNB-75; > 100 µM (inactive) in the experiment with UACC-62; > 100 µM (inactive) in the experiment on LOX IMVI. Moreover, the GI50 with MDA-N, in the experiment with UO-31, in the experiment with MCF7, in the experiment on NCI-H522, in the experiment with SK-MEL-28 and with OVCAR-8 was > 100 µM (inactive) throughout. The GI50 with MDA-MB-435, with SNB-19, with SK-MEL-5, in the experiment with SF-268, with DU-145 and in the experiment with 786-0 was > 100 µM (inactive) throughout. Moreover, the GI50 in the experiment on KM12 was 89.7 µM (inactive).
For `CN1C(=O)C(O)CC1c1ccccc1C(F)(F)F` (configuration not stated), the GI50 with U-251, in the experiment on PC-3, in the experiment on NCI/ADR-RES, in the experiment with SNB-75, with UACC-62 and in the experiment with LOX IMVI was > 100 µM (inactive) each time. In addition, the GI50 in the experiment on MDA-N, in the experiment with UO-31, in the experiment on MCF7, in the experiment with NCI-H522, in the experiment on SK-MEL-28 and in the experiment with OVCAR-8 was > 100 µM (inactive) in each case. Further, the GI50 in the experiment on MDA-MB-435, in the experiment with SNB-19, in the experiment with NCI-H23, in the experiment on SK-MEL-5, with DU-145 and with 786-0 was > 100 µM (inactive) each time. Moreover, the GI50 with KM12 is > 100 µM (inactive).
Regarding `N#Cc1c(-c2ccccc2)c(C#N)c(=S)n(C2OC(CO)C(O)C(O)C2O)c1O` (configuration not stated), the GI50 with PC-3, with NCI/ADR-RES, with SNB-75, in the experiment on UACC-62, in the experiment on LOX IMVI and with MDA-N was > 100 µM (inactive) throughout. Moreover, the GI50 in the experiment on UO-31, with MCF7, with NCI-H522, with SK-MEL-28, with OVCAR-8 and in the experiment on MDA-MB-435 was > 100 µM (inactive) in each case. Besides, the GI50 in the experiment with SNB-19, with NCI-H23, in the experiment with SK-MEL-5, in the experiment on SF-268, in the experiment on DU-145 and with 786-0 was > 100 µM (inactive) in each case. Further, in the experiment on KM12, the GI50 was > 100 µM (inactive).
Take `N#CCCC1C(C#N)C2CC1C1C3C=CC(C3)C21` (configuration not stated): the GI50 in the experiment with PC-3, in the experiment with NCI/ADR-RES, in the experiment with SNB-75, with UACC-62, with LOX IMVI and with MDA-N was > 100 µM (inactive) each time. Moreover, the GI50 in the experiment on UO-31, with MCF7, in the experiment on NCI-H522, with SK-MEL-28, in the experiment with OVCAR-8 and in the experiment on MDA-MB-435 was > 100 µM (inactive) in each case. The GI50 in the experiment with SNB-19, in the experiment on NCI-H23, with SK-MEL-5, with SF-268, in the experiment with DU-145 and in the experiment on 786-0 was > 100 µM (inactive) in each case. In addition, the GI50 in the experiment on KM12 is > 100 µM (inactive).
`CC(CO)CCC(O)C(C)(O)C1CCC2(O)C3=CC(=O)C4CC(O)C(O)CC4(C)C3CCC12C` (configuration not stated): the GI50 was > 100 µM (inactive) with U-251; > 100 µM (inactive) in the experiment with PC-3; > 100 µM (inactive) in the experiment with NCI/ADR-RES; 84.3 µM (inactive) in the experiment with SNB-75; > 100 µM (inactive) in the experiment on UACC-62; > 100 µM (inactive) in the experiment on LOX IMVI. Also, the GI50 in the experiment on MDA-N, in the experiment with UO-31, in the experiment with MCF7, with NCI-H522, in the experiment with SK-MEL-28 and with OVCAR-8 was > 100 µM (inactive) throughout. Moreover, the GI50 in the experiment on MDA-MB-435, in the experiment on SNB-19, in the experiment on NCI-H23, with SK-MEL-5, in the experiment with DU-145 and in the experiment on 786-0 was > 100 µM (inactive) in each case. The GI50 with KM12 is > 100 µM (inactive).
Turning to `CCOC(=O)c1nc2ccc(C(F)(F)F)cc2nc1Nc1ccc(Cl)c(Cl)c1`, the GI50 in the experiment with PC-3 is > 100 µM (inactive); with NCI/ADR-RES, > 100 µM (inactive); in the experiment on SNB-75 it was 48.8 µM (inactive); in the experiment on UACC-62, > 100 µM (inactive); with LOX IMVI, > 100 µM (inactive); in the experiment with MDA-N, 96.8 µM (inactive). Besides, the GI50 in the experiment with UO-31 was > 100 µM (inactive); in the experiment with MCF7, > 100 µM (inactive); in the experiment with NCI-H522 it was > 100 µM (inactive); in the experiment with SK-MEL-28, > 100 µM (inactive); with OVCAR-8 it was 74.5 µM (inactive); in the experiment with MDA-MB-435, > 100 µM (inactive). Also, the GI50 in the experiment with SNB-19 is 42.5 µM (inactive); in the experiment with NCI-H23, > 100 µM (inactive); in the experiment on SK-MEL-5, > 100 µM (inactive); with SF-268 it was > 100 µM (inactive); in the experiment with DU-145, 70.6 µM (inactive); with 786-0 it was 75.3 µM (inactive). The GI50 with KM12 was 75.9 µM (inactive).
For `CC(C)(C)OC(=O)[C@H]1CCC(=S)N1Cc1ccccc1`, the GI50 in the experiment on U-251, in the experiment on PC-3, in the experiment on NCI/ADR-RES, in the experiment on SNB-75, with UACC-62 and in the experiment with LOX IMVI was > 100 µM (inactive) each time. Moreover, the GI50 in the experiment with MDA-N, in the experiment on UO-31, in the experiment with MCF7, in the experiment on NCI-H522, in the experiment with SK-MEL-28 and with OVCAR-8 was > 100 µM (inactive) in each case. In addition, the GI50 with MDA-MB-435, in the experiment with SNB-19, in the experiment on NCI-H23, in the experiment with SK-MEL-5, in the experiment with DU-145 and with 786-0 was > 100 µM (inactive) in each case. In the experiment with KM12, the GI50 is > 100 µM (inactive).
In the case of `[O-][n+]1onc2c1CCC(=N\O)/C2=N/Nc1ccccc1`, the GI50 in the experiment with PC-3, in the experiment on NCI/ADR-RES, in the experiment with SNB-75, in the experiment on UACC-62, with LOX IMVI and with MDA-N was > 100 µM (inactive) in each case. The GI50 in the experiment on UO-31, in the experiment on MCF7, in the experiment on NCI-H522, in the experiment on SK-MEL-28, in the experiment with OVCAR-8 and in the experiment with MDA-MB-435 was > 100 µM (inactive) throughout. Also, the GI50 in the experiment with SNB-19, in the experiment on NCI-H23, with SK-MEL-5, with SF-268, with DU-145 and with 786-0 was > 100 µM (inactive) throughout. In addition, the GI50 in the experiment with KM12 was > 100 µM (inactive).

For the origin of these results see ChEMBL document CHEMBL1201862, “PubChem BioAssay data set” (2004).
